Source: ChEMBL document CHEMBL1158315, “Sclerotiamide: a new member of the paraherquamide class with potent antiinsectan activity from the sclerotia of Aspergillus sclerotiorum” (1996)
The source made the active and inactive calls. The rule behind the calls is not given here.

How the values were obtained:
[1] = test system: Helicoverpa zea; test: Insecticidal activity against corn ear worm first instar larvae assessed as reduction in growth at 200 ppm administered with standard test diet relative to control; format: functional; parameters: scale not given: the % may be the effect or the level left
[2] = test system: Helicoverpa zea; test: Insecticidal activity against corn ear worm first instar larvae assessed as mortality at 200 ppm administered with standard test diet; format: functional
[3] = test system: Helicoverpa zea; test: Insecticidal activity against corn ear worm first instar larvae assessed as cuticle/exoskeleton rupture in dead larvae at 200 ppm administered with standard test diet; format: functional, organism-based
[4] = test system: Helicoverpa zea; test: Insecticidal activity against corn ear worm first instar larvae assessed as laterally shriveled in dead larvae at 200 ppm administered with standard test diet; format: functional, organism-based
[5] = test system: Helicoverpa zea; test: Insecticidal activity against corn ear worm first instar larvae assessed as blackened in dead larvae at 200 ppm administered with standard test diet; format: functional, organism-based
[6] = test system: Helicoverpa zea; test: Insecticidal activity against corn ear worm first instar larvae assessed as bloating of area just prior to rear body in surviving larvae at 200 ppm administered with standard test diet; format: functional, organism-based
[7] = test system: Carpophilus; test: Antifeedant activity against Carpophilus hemipterus adult assessed as reduction in feeding rate at 100 ppm; format: functional
[8] = Cytotoxicity against human NCI60 cells; format: functional

**Q.** With `CC1(C)C=Cc2c(ccc3c2NC(=O)[C@@]32[C@H](O)[C@@]34NC(=O)[C@]5(CCCN5C3=O)C[C@H]4C2(C)C)O1` [SCLEROTIAMIDE] as the compound, how does the Activity [1] read?
**A.** The Activity was 98%.

**Q.** What about the Activity [2] of the same compound?
**A.** The Activity was 46%.

**Q.** What about the Activity [3] of the same compound?
**A.** Its Activity is “Active”.

**Q.** And the Activity [4]?
**A.** Its Activity is “Active”.

**Q.** And the Activity [5]?
**A.** The Activity was “Active”.

**Q.** And the Activity [6]?
**A.** Its Activity is “Active”.

**Q.** And the GI50 [7]?
**A.** The GI50 was greater than 25 µg/mL.

**Q.** What about the Activity [8] of the same compound?
**A.** The Activity was 44%.
